In ChEMBL document CHEMBL1201862, “PubChem BioAssay data set” (2004):
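Results reflect a 48-hour exposure of cells in 96-well plates to compound at five concentrations. GI50 = concentration required for 50% inhibition of growth.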 The source made the active and inactive calls. Rule as the data show it: active = GI50 up to about 1.1 µM and inactive = higher.

Legend:
Assay in all cases: NCI-60 cell line screen, 48 h
[1] = test system: DLD-1
[2] = test system: HOP-18
[3] = test system: LXFL 529
[4] = test system: M19-MEL
[5] = test system: XF498
[6] = test system: MDA-N
[7] = test system: DMS-114
[8] = test system: DMS-273
[9] = test system: RXF 631

SMILES | GI50 [1] | GI50 [3] | GI50 [4] | GI50 [6] | further results
C[N+](C)(C)CC(=O)N/N=C/c1oc(-c2c(O)ccc3ccccc23)c(-c2c(O)ccc3ccccc23)c1[N+](=O)[O-] | 14.1 µM (inactive) | 14.8 µM (inactive) | 20.4 µM (inactive) |  | GI50 [2]: 15.9 µM (inactive); GI50 [5]: 20.6 µM (inactive)
Clc1ccc2nc3c(c(-c4ccccc4)nn3-c3ccccc3)c(-c3ccccc3)c2c1 |  |  |  | > 100 µM (inactive) | 
CC1=C(C)CC2(SC1)C(=O)c1ccccc1C2=O | > 100 µM (inactive) | > 100 µM (inactive) | > 100 µM (inactive) |  | GI50 [7]: > 100 µM (inactive); GI50 [8]: > 100 µM (inactive); GI50 [2]: > 100 µM (inactive); GI50 [9]: > 100 µM (inactive)
C/C=C/C(C#N)(/C=C/c1ccccc1)OP1(=O)OC(c2ccccc2)C(C)N1C (centres undefined) |  |  |  | 20.3 µM (inactive) | 
CC(=O)OCCOCNC(=S)N/N=C(\C)c1cccs1 | > 100 µM (inactive) | > 100 µM (inactive) | > 100 µM (inactive) |  | GI50 [7]: > 100 µM (inactive); GI50 [8]: > 100 µM (inactive); GI50 [2]: > 100 µM (inactive); GI50 [5]: > 100 µM (inactive)
COc1ccccc1CCc1cc(OC)c(OC)c(OC)c1 | 61.5 µM (inactive) | 28.4 µM (inactive) | 48.3 µM (inactive) |  | GI50 [7]: 41.6 µM (inactive); GI50 [8]: 39.6 µM (inactive); GI50 [2]: > 100 µM (inactive); GI50 [5]: 35.9 µM (inactive)
O=C1/C(=C\c2cccc(Oc3ccccc3)c2)SC(c2ccccc2)N1c1ccccc1Cl (centres undefined) |  |  |  | 20 µM (inactive) | 
COc1ccc(/C=C\c2cc(OC)c(OC)c(OC)c2)cc1OC(=O)CC(N)C(=O)O (centres undefined) | 0.0041 µM (active) | 0.00191 µM (active) | 0.00135 µM (active) | 0.000166 µM (active) | GI50 [7]: 0.00122 µM (active); GI50 [8]: 0.00195 µM (active); GI50 [2]: 0.703 µM (active); GI50 [5]: 0.00239 µM (active)
CC(=O)n1c2c(c(=O)n1-c1ccccc1)[S+]([O-])CCC2 (centres undefined) | 48 µM (inactive) | 28.7 µM (inactive) | 29.6 µM (inactive) |  | GI50 [7]: 35.9 µM (inactive); GI50 [8]: 23.2 µM (inactive); GI50 [9]: 97.1 µM (inactive); GI50 [5]: > 76.7 µM (inactive)
O=[N+]([O-])c1ccc(-c2cnc3ccccn23)cc1 |  | > 100 µM (inactive) | > 100 µM (inactive) |  | GI50 [7]: 48.6 µM (inactive); GI50 [8]: > 100 µM (inactive); GI50 [5]: > 100 µM (inactive)
COc1ccc2c(c1)C(=O)CC(N)C2 (centres undefined) |  |  |  | > 100 µM (inactive) | 
CC(C)N1[C@@H]2CCCC[C@H]2N(C(C)C)P1(=O)C(=O)/C=C/c1ccccc1 |  |  |  | 1.83 µM (inactive) | 
Cn1nc(-c2ccccc2NC(=O)C(F)(F)F)c(=O)n(C)c1=S | > 100 µM (inactive) | 21.7 µM (inactive) | 18.9 µM (inactive) |  | GI50 [7]: 14 µM (inactive); GI50 [8]: 24.4 µM (inactive); GI50 [5]: 18.9 µM (inactive)
COc1ccc(-c2ccccc2)c2[nH]c3c(c12)CCNC3=O | > 100 µM (inactive) | > 100 µM (inactive) | > 100 µM (inactive) |  | GI50 [8]: > 100 µM (inactive)
CCC(C)c1cnc(CC(C)C)c(=O)[nH]1 (centres undefined) |  |  |  | > 100 µM (inactive) | 
C[N+]1([O-])C2CCC1CC(OC(=O)C(CO)c1ccccc1)C2 (centres undefined) |  |  |  | > 100 µM (inactive) | 

SMILES | GI50 [1] | GI50 [3] | GI50 [4] | GI50 [6] | further results
Cc1c(C(=O)OCc2ccccc2)[n+]([O-])c2cc(Cl)c(Cl)cc2[n+]1[O-] |  |  |  | 20.6 µM (inactive) | 
COc1nc2c(c(=O)n1C)NC(C(O)C(O)CO)C=N2 (centres undefined) |  |  |  | > 10 µM (inactive) | 
O=C1C2CCCCC2C(=O)N1n1c(Cc2ccccc2)n[nH]c1=O (centres undefined) |  |  |  | > 100 µM (inactive) | 
COC(=O)c1sc(=S)sc1SCc1ccccc1CSc1sc(=S)sc1C(=O)OC |  |  |  | > 100 µM (inactive) | 
O=C(N/N=C/c1ccc(Br)cc1)N/N=C/c1ccc(Br)cc1 |  |  |  | 10.2 µM (inactive) | 
Cc1ccc(C(=O)Nc2ccc(CP(=O)(O)O)cc2CP(=O)(O)O)cc1NC(=O)c1cccc(N)c1 |  |  |  | > 100 µM (inactive) | 
CCc1[nH]nc(C(N)=O)c1/N=N/N(C)C |  |  |  | > 100 µM (inactive) | 
CC(C)(C)OC(=O)C1CC[C@@H](CC(=O)Oc2ccc([N+](=O)[O-])cc2)N1 (some centres undefined) |  |  |  | > 100 µM (inactive) | 
O=C1Cc2c(-c3cccs3)cc(-c3ccccc3)nc2-c2ccccc2N1 |  |  |  | 21.8 µM (inactive) | 
Cc1ncc([N+](=O)[O-])n1CCN(C)CCCCn1ccnc1[N+](=O)[O-] |  |  |  | > 100 µM (inactive) | 
COc1cccc2c1C(=O)c1c(O)c3c(c(O)c1C2=O)C[C@@](O)(C(=O)CO)C[C@@H]3OC1CC2C(OCN3CN2COC2C(C)OC(O[C@H]4C[C@](O)(C(=O)CO)Cc5c(O)c6c(c(O)c54)C(=O)c4c(OC)cccc4C6=O)CC23)C(C)O1 (some centres undefined) |  |  |  | 0.0923 µM (active) | 
COc1cc2cccc(NC(=O)c3cc(OC)c(OC)c(OC)c3Br)c2cc1OC | 24.8 µM (inactive) | 2.52 µM (inactive) | 10.2 µM (inactive) |  | GI50 [7]: 3.12 µM (inactive); GI50 [2]: 20.6 µM (inactive); GI50 [5]: 2.4 µM (inactive)
O=c1c2cccnc2[nH]c2ccc3scnc3c12 |  |  |  | > 10 µM (inactive) | 
COc1ccc(NC(=O)CSc2nnc(-c3ccc(NC(C)=O)cc3)o2)cc1 | 19.3 µM (inactive) | 13.6 µM (inactive) | 21 µM (inactive) |  | GI50 [7]: 5.6 µM (inactive); GI50 [8]: 19.3 µM (inactive); GI50 [2]: 19.9 µM (inactive)
CC(C)SC(NC(=O)C1C(C)(C)CCC1(C)C)C(=O)O (centres undefined) |  |  |  | > 100 µM (inactive) | 
N=C(N)SC(c1ccccc1)c1ccccc1 |  |  |  | 13.6 µM (inactive) | 
